Measured values from article PMC13267291, “In vivo functional profiling and structural characterization of the human GLP1R A316T variant” (Science Advances, 2026).

Experiments:
[1] = system: hGLP1R^−/− mouse islets transduced with SNAP/FLAG-hGLP1R^WT versus ^A316T; islets from hGLP1R^+/+ versus ^A316T/A316T mice; experiment: Lysosomal inhibition assay, surface GLP-1R in mouse islets; type: cell-based; settings: 400 nM, 2 hours; n = 3 and n = 4; Fig. 7E,F
Method: (§1) INS-1 832/3 Glp1r^−/− SNAP/FLAG-hGLP1R^WT or ^A316T cells on coverslips, mouse hGLP1R^−/− islets transduced with pAV-SNAP/FLAG-hGLP1R^WT or ^A316T adenoviruses, or hGLP1R^A316T/A316T and ^+/+ control islets were incubated for 2 hours ± 400 nM bafilomycin-A1 (Sigma-Aldrich), an established vacuolar H^+-ATPase and lysosomal trafficking inhibitor ([98]), in complete medium. Cells and transduced hGLP1R^−/− islets were then labeled with 1 μM SNAP-Surface 549, and hGLP1R^A316T/A316T versus ^+/+ islets were treated with exendin-9–TMR in complete medium at 37°C for 10 min. Cells were washed and fixed in 4% PFA, mounted in Prolong Diamond antifade reagent with DAPI, while islets were loaded onto glass-bottom MatTek dishes in PBS, and images were acquired by confocal microscopy with a Zeiss LSM-780 inverted confocal laser scanning microscope and a 63×/1.4 numerical aperture oil immersion objective from the Imperial College FILM Facility. Images were analyzed using Fiji.

[2] = system: INS-1 832/3 Glp1r^−/− SNAP/FLAG-hGLP1R^A316T cells; experiment: Lysosomal inhibition assay, surface GLP-1R in INS-1 832/3 cells; type: cell-based, rat; settings: 400 nM, 2 hours; comparable to WT; n = 5; Fig. 7D
Method: as §1

[3] = system: human GLP-1R A316T versus WT; experiment: Insulin secretion assay in mouse islets; type: cell-based; settings: HFHS-fed mouse islets; 11 mM glucose + 100 nM; fig. S6I
Method: Purified mouse islets used for insulin secretion assays were treated in 24-well nonadherent plates. Eight islets were used per replicate with three technical replicates per condition. For acute studies, islets were preincubated for 1 hour in KRBH buffer containing 0.1% (w/v) bovine serum albumin (BSA) (10775835001, Roche) and 3 mM glucose before incubation with 11 mM glucose ± 100 nM GLP-1RAs or the GLP-1R antagonist exendin-9 in KRBH buffer in a shaking 37°C water bath (80 rpm) for 1 hour. For overnight studies, preincubation was carried out in RPMI 1640 medium containing FBS, P/S, and 3 mM glucose, followed by treatment with medium supplemented with 11 mM glucose ± GLP-1RAs for 16 hours. Supernatants containing secreted insulin were collected, centrifuged at 1000 rpm for 1 min, and transferred to fresh tubes. For total insulin content, islets were lysed using acidic ethanol (75% ethanol, 1.5 mM HCl). Lysates were sonicated 3× 10 s each in a water bath and centrifuged at 10,000g for 10 min, and supernatants were collected. For human islets, the same experiment was performed with islets previously transduced with pAV-SNAP/FLAG-hGLP1R^WT or ^A316T adenoviruses (generated by VectorBuilder) at a multiplicity of infection of 1, 24 hours before the start of experiments. Insulin secretion assays with the human EndoC-βH3 cell line were performed following 3 weeks of treatment with 4-hydroxytamoxifen as above, followed by transduction with pAV-SNAP/FLAG-hGLP1R^WT or ^A316T adenoviruses, with insulin secretion assessed as previously described ([54]), with the following modifications: After preincubation with 0.5 mM glucose KRBH buffer, cells were stimulated with 15 mM glucose ± exendin-4 for 60 min. Total and secreted insulin samples from islets and cells were stored at −20°C until quantification using an Insulin Ultra-Sensitive HTRF kit (#62IN2PEG, Revvity) in a PHERAstar plate reader (BMG Labtech), according to the manufacturer’s instructions.

`CO/C1=C\C(C)=C\[C@@H](C)[C@@H](O)[C@@H](C)C/C(C)=C/C=C/[C@H](OC)[C@@H]([C@@H](C)[C@@H](O)[C@H](C)[C@@]2(O)C[C@@H](O)[C@H](C)[C@@H](C(C)C)O2)OC1=O` [bafilomycin A1] was tested, and the “Surface GLP-1R A316T after lysosomal inhibition in islets” value [1] was “same effect” and the “Surface expression levels of GLP-1R A316T after lysosomal inhibition” value [2] was “complete recovery of surface expression levels”.
In the case of exendin-9, the “Basal insulin secretion of A316T islets on exposure to antagonist/inverse agonist” value [3] is reported as “significantly reduced”.
